Measured values reported in article PMC9268515, “UGT1A1 and UGT1A9 Are Responsible for Phase II Metabolism of Tectorigenin and Irigenin In Vitro” (Molecules, 2022).

Legend:
UGT1A1 = target: T1, UGT1A1 (Homo sapiens, UniProt P22309); experiment: Recombinant UGT reaction screening and enzyme kinetics, UGT1A1; format: in vitro ADME; details: recombinant UGT1A1 screening
T1 construct: purchased BD Biosciences (Woburn, MA, USA)
T1 sequence (P22309 26-533): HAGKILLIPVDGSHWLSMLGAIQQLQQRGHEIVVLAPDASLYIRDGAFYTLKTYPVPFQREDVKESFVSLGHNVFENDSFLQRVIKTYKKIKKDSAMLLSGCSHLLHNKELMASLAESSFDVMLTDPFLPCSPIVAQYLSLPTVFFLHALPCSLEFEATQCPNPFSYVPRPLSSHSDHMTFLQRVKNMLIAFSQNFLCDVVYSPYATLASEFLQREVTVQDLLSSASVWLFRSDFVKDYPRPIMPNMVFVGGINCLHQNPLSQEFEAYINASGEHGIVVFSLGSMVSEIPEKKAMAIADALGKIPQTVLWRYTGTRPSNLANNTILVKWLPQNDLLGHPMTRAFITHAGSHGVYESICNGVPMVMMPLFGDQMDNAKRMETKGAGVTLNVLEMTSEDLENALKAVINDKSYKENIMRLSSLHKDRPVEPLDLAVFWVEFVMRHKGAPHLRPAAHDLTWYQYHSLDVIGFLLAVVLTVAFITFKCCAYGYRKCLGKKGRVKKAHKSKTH
Method: (§1) UGT reaction screening of tectorigenin and irigenin was conducted using nine commercially available human UGTs (UGT1A1/1A3/1A4/1A6/1A9/2B4/2B7/2B15/2B17). Furthermore, we studied the enzymatic kinetic characteristics of tectorigenin and irigenin using UGT1A1 and UGT1A9. Six concentrations of tectorigenin and irigenin (1, 3, 10, 30, 100, and 300 μM) were incubated in triplicate in order to obtain the enzyme kinetic characteristics of tectorigenin and irigenin glucuronide.
(§2) For both HLMs and UGTs, metabolic kinetic analysis was performed by fitting the data to the Michaelis-Menten model. The Km and Vmax of enzymes were calculated as follows:(3) V=Vmax×[S]/Km+[S], where [S] is the substrate concentration. All results were shown as the mean ± standard error (SE). Differences among different groups were compared using one-way analysis of variance. A p-value < 0.05 was considered statistically significant.

[1] = Stability experiment under different storage conditions; format: physicochemical; details: autosampler 12 h at 4 °C
Method: In the stability experiment, we evaluated the stability of tectorigenin and irigenin, as well as their metabolites, under different conditions. […] Metabolites (M, M1, and M2) were stable in the inactivated metabolic system for 2 h (held constant at approximately 25 °C) and after storage for 7 days (−80 °C), as well as in the pretreated samples placed in the autosampler for 12 h at 4 °C.

UGT1A6 = target: T2, UGT1A6 (Homo sapiens, UniProt P19224); experiment: Recombinant UGT reaction screening, UGT1A6; format: in vitro ADME
T2 construct: purchased BD Biosciences (Woburn, MA, USA)
T2 sequence (P19224 27-532): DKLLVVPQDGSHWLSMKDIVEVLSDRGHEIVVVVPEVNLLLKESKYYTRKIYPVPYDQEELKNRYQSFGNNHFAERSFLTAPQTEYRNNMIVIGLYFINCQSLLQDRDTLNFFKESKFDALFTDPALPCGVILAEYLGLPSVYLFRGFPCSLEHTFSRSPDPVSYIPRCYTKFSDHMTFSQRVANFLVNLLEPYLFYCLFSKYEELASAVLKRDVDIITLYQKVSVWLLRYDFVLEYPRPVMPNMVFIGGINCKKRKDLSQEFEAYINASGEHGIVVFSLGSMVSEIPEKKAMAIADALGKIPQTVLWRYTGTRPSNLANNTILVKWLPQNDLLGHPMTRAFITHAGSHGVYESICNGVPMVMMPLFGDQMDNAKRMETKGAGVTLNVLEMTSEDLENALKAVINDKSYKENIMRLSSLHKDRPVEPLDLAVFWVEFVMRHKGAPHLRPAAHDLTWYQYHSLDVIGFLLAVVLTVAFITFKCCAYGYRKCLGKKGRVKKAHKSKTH
Method: as §1

[2] = test system: pooled human liver microsomes (HLMs); experiment: Glucuronidation kinetics of tectorigenin and irigenin in HLMs; format: in vitro ADME; details: tectorigenin glucuronidation in HLMs, metabolite M
Method: To obtain suitable incubation conditions, we first evaluated the linearity of metabolite formation at different times (10–60 min), the UDPGA concentrations (0.5–5 mM), and the microsome protein concentrations in HLMs (0.2–2 mg/mL). The final incubation medium used in the experiment contained MgCl2 (10 mM), microsomes (0.5 mg/mL), 1,4-lactone monohydrate (5 mM), alamethicin ([…]), UDPGA (1 mM), and different concentrations of tectorigenin or irigenin (1–300 μM) in Tris-HCl buffer (50 mM, pH 7.4). The mixture was incubated at 37 °C for 30 min; then, the reaction was stopped by adding ice-cold methanol. After the mixtures were centrifuged (17,000 rpm, 10 min), and the supernatant was analyzed by HPLC. Michaelis–Menten parameters (Vmax and Km) were determined on the basis of the nonlinear regression of the plot of the substrate concentration vs. rate of metabolite formation.
as §2

UGT1A3 = target: T3, UGT1A3 (Homo sapiens, UniProt P35503); experiment: Recombinant UGT reaction screening, UGT1A3; format: in vitro ADME
T3 construct: purchased BD Biosciences (Woburn, MA, USA)
T3 sequence (P35503 29-534): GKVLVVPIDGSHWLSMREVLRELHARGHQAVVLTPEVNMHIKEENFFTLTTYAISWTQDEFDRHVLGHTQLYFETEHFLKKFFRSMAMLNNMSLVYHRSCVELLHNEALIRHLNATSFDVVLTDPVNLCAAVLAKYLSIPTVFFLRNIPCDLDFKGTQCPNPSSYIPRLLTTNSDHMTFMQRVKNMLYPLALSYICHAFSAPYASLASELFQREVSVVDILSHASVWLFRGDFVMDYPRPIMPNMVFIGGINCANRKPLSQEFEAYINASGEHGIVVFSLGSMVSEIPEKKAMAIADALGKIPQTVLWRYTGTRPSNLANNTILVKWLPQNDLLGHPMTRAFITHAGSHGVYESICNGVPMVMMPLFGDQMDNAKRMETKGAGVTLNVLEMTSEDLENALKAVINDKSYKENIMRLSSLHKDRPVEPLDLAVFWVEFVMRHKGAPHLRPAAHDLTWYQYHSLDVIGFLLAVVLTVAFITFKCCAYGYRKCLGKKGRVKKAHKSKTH
Method: as §1

COc1c(O)cc2occ(-c3ccc(O)cc3)c(=O)c2c1O [Tectorigenin, 5,7,4′-trihydroxyl-6-methoxyl isoflavone]
Activity in glucuronidation of tectorigenin (UGT1A1): highest activity | Stability in pretreated samples in the autosampler [1]: stable | RE and RSD values in pretreated samples in the autosampler ([1]; printed as below ±5%): < 5% | Activity in glucuronidation of tectorigenin (UGT1A6): some activity | Vmax for M formation [2]: 5.87 ± 0.25 nmol/min/mg | Km ([2]; read-out: Km for M formation): 32.8 ± 4.79 µM | Activity in glucuronidation of tectorigenin (UGT1A3): some activity
